Values of other authors as cited in patent US8440655B2, “Combination therapy for the treatment of diabetes” (Theracos, Inc., priority 2010, dated 2013).

Legend:
cardiac receptors = settings: (+) form compared to (−) form
muscarinic receptor = settings: result in words
cortical receptors = settings: (+) form compared to (−) isomer
[1] = at 90 degrees

factor by which the (+) form is more potent than the (−) form (cardiac receptors)	antimuscarinic activity (muscarinic receptor)	factor by which the (+) form is more effective than the (−) isomer (cortical receptors)	half time of interconversion of the two forms [1]	Structure (SMILES)
50	potent antimuscarinic activity	400		Cc1scc2c1N(C(=O)CN1CCN(C)CC1)c1ccccc1NC2=O [(+) form of telenzepine]
	considerably less active			Cc1scc2c1N(C(=O)CN1CCN(C)CC1)c1ccccc1NC2=O [(−) form]
			approximately 200 hours	Cc1scc2c1N(C(=O)CN1CCN(C)CC1)c1ccccc1NC2=O [Telenzepine, 4,9-Dihydro-3-methyl-4-[(4-methyl-1-piperazinyl)acetyl]-10H-thieno[3,4-b][1,5]benzodiazepin-10-one]
